From patent publication US8609870B2, “Treating various disorders using TrkB agonists” (Emory University, priority 2008, dated 2013)

Key:
TrkB [1] = target: T1, TrkB (Mus musculus, UniProt P15209); assay: TrkB activation in mouse brain after i.p. or oral administration; assay type: in vivo
T1 construct: Brain lysates were prepared and analyzed by immunoblotting; from tissue; host or cells: mouse brain
Method: Unless specifically described, brain tissues are fixed in 4% paraformaldehyde overnight followed by paraffin embedding. Sections of 5 μm are cut. For immunohistochemical staining, brain sections are deparaffinized in xylene and rehydrated in graded alcohols. Endogenous peroxidase activity are blocked by 3% hydrogen peroxide for 5 minutes and all slides are boiled in 10 mM sodium citrate buffer (pH 6.0) for 10 minutes. Phosphorylated Trk A, Trk A, phosphorylated Trk B, and Trk B are detected using specific antibodies and, e.g., a Zymed HistostainPlus AEC kit (Invitrogen; Carlsbad, Calif.). Slides then are counterstained with hematoxylin.
To assess whether an identified active compound provokes TrkB activation in the brain, mice are intraperitoneally injected with a dose of 5 mg/kg and analyzed at various time points. […] Further, whether the protein and mRNA levels of the neurotrophic receptors is altered after treatment with an identified active compound is measured.
Both Akt and Erk1/2 were robustly activated by these molecules as well). […] The minimal required drug concentration was about 100-250 nM (see FIG. 7, right panels). […] To assess whether deoxygedunin provokes TrkB activation in the brain, mice (i.p.) were injected with a dose of 5 mg/kg for various time points. […] To establish that deoxygedunin is orally bioactive in provoking TrkB activation, two to three month old C57BL/6J mice were orally injected with various doses of 7,8-dihydroxyflavone or deoxygedunin then sacrificed 2 to 4 hours after administration. Brain lysates were prepared and analyzed by immunoblotting (see FIG. 10).

TrkA or TrkB = assay: RT-PCR analysis of Trk receptors in mouse brain; assay type: in vivo; conditions: mouse brain upon deoxygedunin treatment
TrkB [2] = assay: TrkB activation in cortical neurons from knockout mouse pups; assay type: cell-based
Method: (§1) To determine whether an identified active compound selectively activates TrkB receptor and prevents neuronal cell death, cortical neurons are prepared from homozygous pups of TrkB +/− mice, which are mated to the same genotype. The activation of TrkB and down stream indicators of TrkB activation, such as Capase-3, are monitored. To further assess whether an identified active compound blocks neuronal apoptosis in a TrkB dependent manner, cortical neurons are prepared from homozygous pups of […], which are mated to the same genotype. Again, the activation of TrkB and down stream indicators of TrkB activation, such as Capase-3, are monitored.
(§2) Additionally, the spontaneous caspase-3 activation in […] was suppressed by deoxygedunin.

caspase-3 = assay: Caspase-3 activation in cortical neurons from knockout mouse pups; assay type: cell-based
Method: as §1, §2

mice = assay: Forced swim test; assay type: in vivo, mouse; conditions: for immobility time: TrkB F616A knockin mice
Method: To explore whether an identified active compound has an antidepressant effect like BDNF, a forced swim test is conducted. Adult male mice (2-3 months old) are randomly submitted, without a pre-swim, to a forced swim test of 6 minutes with immobility recorded in the last 4 minutes. The mice are injected intraperitoneally for 5 days with saline, imipramine (20 mg/kg), amitryptyline (15 mg/kg), or an identified active compound (5 mg/kg). The mice are allowed to adapt to the test room for 2 days, and the mice are placed in a clear glass cylinder with a diameter of 16 cm, half-filled with clear water at 24° C.
To investigate whether deoxygedunin mimicked BDNF in suppressing depression-like symptoms, a forced swim test after subchronic treatment of the mice for 5 days with various drugs was conducted. […] To assess whether the behavior responses by 7,8-DHF and deoxygedunin were mediated by TrkB receptor, TrkB F616A knockin mice were used. The transgenic mice were subjected to saline or 1NMPP1 treatment, respectively.

C57BL/6J mice = assay: Tone-shock fear conditioning model; assay type: in vivo, mouse
Method: Following a two-day habituation to testing context, wild-type C57Bl/6J mice (N=28, male, 8-10 weeks old) were fear conditioned in eight identical startle response systems (SR-LAB, SDI) consisting of a nonrestrictive Plexiglas cylinder, 5.5 cm in diameter and 13 cm long, mounted on a Plexiglas platform which was located in a ventilated, sound-attenuated chamber. One hour prior to fear conditioning, mice received […] (N=14, 5 mg/kg, i.p.) or vehicle (N=14, 17% DMSO in PBS). Mice then received 5 tone—footshock pairings, with 30 second 12 kHz, 85 dB tones which co-terminated with the footshocks (intensity of 0.5 mA, 0.5 second) with a 5 minute intertrial interval (ITI), after which they were returned to their homecage. 24 and 48 hrs after training, the mice were tested for freezing in rodent modular test chambers with an inside area of 30.5 cm×24.1 cm×21.0 cm. Three minutes after placing the mouse in the test chamber, fifteen 30 second conditioned stimulus (CS) tones with an ITI of 1.5 min were delivered through a high-frequency speaker attached to the side of each chamber. Percentage time spent freezing during the CS presentations was calculated for each mouse using FreezeFrame (Product Number: ACT-100) (Coulbourn Instruments, Whitehall, Pa.).
To determine whether deoxygeduning would enhance learning in a whole animal model of learning and memory, in which BDNF-dependent TrkB activation was required, a tone-shock fear conditioning model was developed (see FIG. 26). Following habituation to the testing context, 28 adult wild-type, C57BL/6J mice were given systemic injections of deoxygedunin (N=14, 5 mg/kg, i.p.) or vehicle (N=14) 1 hour prior to being subjected to the tone-shock fear conditioning model. […] Mice were then tested, with no additional drug treatment, for cue-conditioned fear in the previously habituated context on the two days following fear acquisition. […] To further explore these effects, individual animals' freezing levels throughout the tone-fear testing sessions were examined. […]

TrkA = TrkA (Mus musculus, UniProt Q3UFB7); assay: TrkA activation in cortical neurons from knockout mouse pups; assay type: cell-based; set-up: endogenous in cells; host or cells: primary cortical neurons from mouse pups
TrkA, sequence (Q3UFB7 34-799): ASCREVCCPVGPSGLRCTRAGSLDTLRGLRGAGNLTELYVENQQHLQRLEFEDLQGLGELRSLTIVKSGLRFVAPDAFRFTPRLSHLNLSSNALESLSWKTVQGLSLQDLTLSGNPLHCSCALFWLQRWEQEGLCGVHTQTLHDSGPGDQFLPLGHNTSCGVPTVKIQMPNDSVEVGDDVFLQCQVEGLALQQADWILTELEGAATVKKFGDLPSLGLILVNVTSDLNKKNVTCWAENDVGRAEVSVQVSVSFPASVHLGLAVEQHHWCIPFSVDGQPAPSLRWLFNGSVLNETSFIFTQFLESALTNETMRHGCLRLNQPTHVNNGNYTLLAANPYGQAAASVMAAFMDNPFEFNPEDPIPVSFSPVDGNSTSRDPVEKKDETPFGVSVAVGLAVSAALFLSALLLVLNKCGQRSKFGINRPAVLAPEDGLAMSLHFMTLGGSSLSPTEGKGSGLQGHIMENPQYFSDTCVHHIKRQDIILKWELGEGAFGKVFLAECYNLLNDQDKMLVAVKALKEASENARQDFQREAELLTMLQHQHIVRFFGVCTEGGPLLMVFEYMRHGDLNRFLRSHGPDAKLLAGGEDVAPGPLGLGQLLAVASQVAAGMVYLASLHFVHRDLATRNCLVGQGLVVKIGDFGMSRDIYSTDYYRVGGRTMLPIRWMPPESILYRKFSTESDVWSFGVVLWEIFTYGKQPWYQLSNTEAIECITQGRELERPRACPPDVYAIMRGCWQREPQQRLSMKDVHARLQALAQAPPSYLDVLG

[3] = both wild-type and TrkC knockout neurons

T1 sequence (P15209 32-821): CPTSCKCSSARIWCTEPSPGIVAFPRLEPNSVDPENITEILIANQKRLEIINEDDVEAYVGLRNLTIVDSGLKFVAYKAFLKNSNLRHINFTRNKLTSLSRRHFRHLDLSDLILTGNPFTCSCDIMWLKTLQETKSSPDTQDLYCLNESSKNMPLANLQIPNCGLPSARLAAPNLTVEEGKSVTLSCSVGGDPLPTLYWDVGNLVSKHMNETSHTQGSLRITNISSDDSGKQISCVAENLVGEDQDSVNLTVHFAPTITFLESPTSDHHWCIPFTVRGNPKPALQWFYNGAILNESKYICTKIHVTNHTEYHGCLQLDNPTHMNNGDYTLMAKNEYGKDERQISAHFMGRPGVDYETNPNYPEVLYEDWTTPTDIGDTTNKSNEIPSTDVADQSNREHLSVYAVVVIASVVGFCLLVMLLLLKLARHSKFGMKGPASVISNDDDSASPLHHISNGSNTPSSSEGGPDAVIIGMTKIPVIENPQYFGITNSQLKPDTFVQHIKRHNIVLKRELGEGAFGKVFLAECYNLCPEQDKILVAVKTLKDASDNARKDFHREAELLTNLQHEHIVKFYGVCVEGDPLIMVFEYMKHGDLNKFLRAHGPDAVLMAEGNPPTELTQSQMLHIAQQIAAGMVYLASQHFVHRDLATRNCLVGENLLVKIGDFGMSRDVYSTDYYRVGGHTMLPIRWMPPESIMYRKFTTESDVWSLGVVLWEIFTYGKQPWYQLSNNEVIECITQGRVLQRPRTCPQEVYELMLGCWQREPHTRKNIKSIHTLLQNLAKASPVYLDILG

**Q.** How did the “time after injection at which TrkB was phosphorylated in the brain” value (TrkB [1]; mice, 5 mg/kg i.p.) turn out when `CC(=O)O[C@@H]1C[C@H]2C(C)(C)C(=O)C=C[C@]2(C)[C@H]2CC[C@]3(C)C(=CC(=O)O[C@H]3c3ccoc3)[C@@]21C` [deoxygedunin] was run?
**A.** The value was 2 h.

**Q.** What about the “time of peak TrkB phosphorylation in the brain” value (TrkB [1]; mice, 5 mg/kg i.p.) of the same compound?
**A.** The value was 4 to 8 h.

**Q.** What about the blood-brain barrier penetration (TrkB [1]; mice, 5 mg/kg i.p., inferred from brain TrkB phosphorylation) of the same compound?
**A.** The blood-brain barrier penetration was “penetrated the blood-brain barrier”.

**Q.** What about the “TrkB activation in hippocampus (immunohistochemistry staining)” value (TrkB [1]; mouse hippocampus upon treatment) of the same compound?
**A.** The value was “robust TrkB activation in hippocampus”.

**Q.** And the “change of TrkA or TrkB (RT-PCR)” value (TrkA or TrkB)?
**A.** The value was “no change of TrkA or TrkB”.

**Q.** What about the TrkB activation (TrkB [2]; TrkB −/− cortical neurons) of the same compound?
**A.** The TrkB activation was “not TrkB −/− neurons”.

**Q.** And the TrkB activation (TrkB [2]; [3])?
**A.** The TrkB activation was “strongly provoked TrkB”.

**Q.** What about the TrkB activation (TrkB [2]; wild-type cortical neurons (pups of TrkB +/− mice)) of the same compound?
**A.** The TrkB activation was “specifically activated TrkB”.

**Q.** And the “blockade of glutamate-provoked caspase-3 activation” value (caspase-3; TrkB −/− cortical neurons)?
**A.** The value was “not TrkB −/− neurons”.

**Q.** What about the “spontaneous caspase-3 activation” value (caspase-3; TrkC −/− neurons) of the same compound?
**A.** Its value is “suppressed”.

**Q.** And the “glutamate triggered caspase-3 activation” value (caspase-3; wild-type and TrkC knockout neuron experiment)?
**A.** The value was “diminished”.

**Q.** What about the “blockade of glutamate-provoked caspase-3 activation” value (caspase-3; wild-type cortical neurons) of the same compound?
**A.** The value was “substantially blocked”.

**Q.** What about the immobility time (mice; TrkB blocked by 1NMPP1) of the same compound?
**A.** Its immobility time is “did not have a significant effect”.

**Q.** What about the immobility time (mice; saline group) of the same compound?
**A.** Its immobility time is “substantially reduced the immobility time”.

**Q.** And the swimming immobility (mice; mice, subchronic treatment 5 days, imipramine 20 mg/kg, deoxygedunin 5 mg/kg)?
**A.** The swimming immobility was “reduced the immobility”.

**Q.** And the “shock reactivity during fear acquisition training” value (C57BL/6J mice; 5 mg/kg i.p. 1 hour prior to conditioning, versus vehicle)?
**A.** The value was “no difference”.

**Q.** What about the “average level of tone-dependent conditioned freezing versus vehicle” value (C57BL/6J mice; 5 mg/kg i.p. 1 hour prior to training, tested on the two following days) of the same compound?
**A.** The value was “significantly different on both testing days”.

**Q.** And the “increase in the level of freezing during the first set of CS trials” value (C57BL/6J mice; 5 mg/kg i.p., each testing day, versus vehicle)?
**A.** Its value is 2-3 fold.

**Q.** What about the TrkA activation (TrkA; [3]) of the same compound?
**A.** The TrkA activation was “not TrkA activation”.

**Q.** And the TrkA activation (TrkA; cortical neurons (pups of TrkB +/− mice))?
**A.** The TrkA activation was “not TrkA receptor”.
